From patent US20240109865A1, “INDAZOLE COMPOUNDS AS KINASE INHIBITORS” (TYRA BIOSCIENCES, INC., priority 2020, published 2024)

Assays:
Assay in all cases: Kinase assay, binding constants (Kd), kinase-tagged T7 phage, qPCR
FGFR3 (V555M) = FGFR3 (V555M) (Homo sapiens (Human), UniProt P22607, V555M); conditions: V555M mutant
Method in brief: (§1)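 Competition binding: kinase-tagged T7 phage lysates mixed with immobilized biotinylated ligand on streptavidin beads plus compound (11-point 3-fold dilution series, 0.9% DMSO final). Bound kinase eluted with free ligand and quantified by qPCR. Kd from Hill equation fit, slope fixed at −1.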

FGFR4 = FGFR4 (Homo sapiens (Human), UniProt P22455)
Method in brief: as §1

FGFR1 = FGFR1 (Homo sapiens (Human), UniProt P11362)
Method in brief: as §1

FGFR3 = FGFR3 (Homo sapiens (Human), UniProt P22607)
Method in brief: as §1

FGFR2 = FGFR2 (Homo sapiens (Human), UniProt P21802)
Method in brief: as §1

Sequence of FGFR3 (V555M) (P22607 23-806 V555M): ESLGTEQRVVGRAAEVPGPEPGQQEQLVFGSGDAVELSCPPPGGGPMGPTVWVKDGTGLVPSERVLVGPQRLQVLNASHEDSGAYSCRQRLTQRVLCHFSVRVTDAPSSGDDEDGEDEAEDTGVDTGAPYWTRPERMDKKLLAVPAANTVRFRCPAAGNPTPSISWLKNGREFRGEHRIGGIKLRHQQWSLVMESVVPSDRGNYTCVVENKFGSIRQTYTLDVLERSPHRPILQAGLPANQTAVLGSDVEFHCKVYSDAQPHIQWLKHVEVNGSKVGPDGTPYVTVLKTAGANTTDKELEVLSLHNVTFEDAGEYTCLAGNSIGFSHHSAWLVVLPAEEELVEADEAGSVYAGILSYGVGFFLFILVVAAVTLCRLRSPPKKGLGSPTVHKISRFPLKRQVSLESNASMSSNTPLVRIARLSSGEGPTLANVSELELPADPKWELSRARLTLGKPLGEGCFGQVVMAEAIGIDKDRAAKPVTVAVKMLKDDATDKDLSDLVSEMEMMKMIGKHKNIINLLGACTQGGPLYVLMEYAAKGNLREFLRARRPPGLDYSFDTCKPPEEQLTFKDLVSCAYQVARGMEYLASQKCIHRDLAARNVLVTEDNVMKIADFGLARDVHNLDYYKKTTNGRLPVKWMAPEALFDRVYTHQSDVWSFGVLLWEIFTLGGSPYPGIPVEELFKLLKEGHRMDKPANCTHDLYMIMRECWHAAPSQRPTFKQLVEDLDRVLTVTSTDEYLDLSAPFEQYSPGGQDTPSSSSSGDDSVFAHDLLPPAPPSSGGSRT
Sequence of FGFR2 (P21802 22-821): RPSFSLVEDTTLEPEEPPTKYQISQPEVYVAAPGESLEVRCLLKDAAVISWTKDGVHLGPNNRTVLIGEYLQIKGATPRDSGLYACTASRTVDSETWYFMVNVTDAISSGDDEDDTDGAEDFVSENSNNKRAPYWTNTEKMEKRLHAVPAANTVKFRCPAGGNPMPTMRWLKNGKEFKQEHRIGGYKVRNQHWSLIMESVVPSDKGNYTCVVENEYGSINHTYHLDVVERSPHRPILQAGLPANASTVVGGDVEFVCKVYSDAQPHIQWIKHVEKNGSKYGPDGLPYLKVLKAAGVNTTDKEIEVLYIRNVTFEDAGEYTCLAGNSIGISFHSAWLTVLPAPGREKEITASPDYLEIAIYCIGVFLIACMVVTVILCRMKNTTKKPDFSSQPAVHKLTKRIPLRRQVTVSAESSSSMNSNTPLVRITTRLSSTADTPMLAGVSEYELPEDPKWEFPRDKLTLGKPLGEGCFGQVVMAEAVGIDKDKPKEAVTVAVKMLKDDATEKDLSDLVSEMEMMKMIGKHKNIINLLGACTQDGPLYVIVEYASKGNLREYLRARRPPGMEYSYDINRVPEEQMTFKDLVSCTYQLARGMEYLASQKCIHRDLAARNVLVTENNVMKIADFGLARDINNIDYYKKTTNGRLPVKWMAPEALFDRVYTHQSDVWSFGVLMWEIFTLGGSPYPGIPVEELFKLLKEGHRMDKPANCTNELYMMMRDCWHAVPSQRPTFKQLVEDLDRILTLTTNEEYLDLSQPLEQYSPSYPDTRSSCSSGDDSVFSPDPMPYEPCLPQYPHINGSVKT
Sequence of FGFR3 (P22607 23-806): as the sequence (P22607 23-806 V555M) above, with M533V counted along it
Sequence of FGFR4 (P22455 22-802): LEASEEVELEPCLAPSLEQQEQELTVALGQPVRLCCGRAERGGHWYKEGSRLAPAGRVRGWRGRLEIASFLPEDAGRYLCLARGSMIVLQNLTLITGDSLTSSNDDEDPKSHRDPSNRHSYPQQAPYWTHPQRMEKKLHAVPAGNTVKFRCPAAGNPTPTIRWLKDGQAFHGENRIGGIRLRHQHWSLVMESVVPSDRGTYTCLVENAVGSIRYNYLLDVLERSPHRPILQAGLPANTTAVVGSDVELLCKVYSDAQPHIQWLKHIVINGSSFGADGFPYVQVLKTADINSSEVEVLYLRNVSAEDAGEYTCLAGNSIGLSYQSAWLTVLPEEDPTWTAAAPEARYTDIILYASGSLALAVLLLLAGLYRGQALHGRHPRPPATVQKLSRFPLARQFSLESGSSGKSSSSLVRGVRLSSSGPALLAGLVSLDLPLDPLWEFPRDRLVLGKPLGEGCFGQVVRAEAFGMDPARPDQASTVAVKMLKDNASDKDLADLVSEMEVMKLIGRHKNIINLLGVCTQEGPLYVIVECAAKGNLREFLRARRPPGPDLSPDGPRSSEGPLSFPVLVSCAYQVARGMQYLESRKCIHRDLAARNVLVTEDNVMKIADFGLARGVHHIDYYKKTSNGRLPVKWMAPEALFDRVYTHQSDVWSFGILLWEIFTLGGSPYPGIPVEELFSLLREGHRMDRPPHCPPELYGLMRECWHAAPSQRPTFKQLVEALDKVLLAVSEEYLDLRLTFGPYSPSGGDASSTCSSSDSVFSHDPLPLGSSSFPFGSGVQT
Sequence of FGFR1 (P11362 22-822): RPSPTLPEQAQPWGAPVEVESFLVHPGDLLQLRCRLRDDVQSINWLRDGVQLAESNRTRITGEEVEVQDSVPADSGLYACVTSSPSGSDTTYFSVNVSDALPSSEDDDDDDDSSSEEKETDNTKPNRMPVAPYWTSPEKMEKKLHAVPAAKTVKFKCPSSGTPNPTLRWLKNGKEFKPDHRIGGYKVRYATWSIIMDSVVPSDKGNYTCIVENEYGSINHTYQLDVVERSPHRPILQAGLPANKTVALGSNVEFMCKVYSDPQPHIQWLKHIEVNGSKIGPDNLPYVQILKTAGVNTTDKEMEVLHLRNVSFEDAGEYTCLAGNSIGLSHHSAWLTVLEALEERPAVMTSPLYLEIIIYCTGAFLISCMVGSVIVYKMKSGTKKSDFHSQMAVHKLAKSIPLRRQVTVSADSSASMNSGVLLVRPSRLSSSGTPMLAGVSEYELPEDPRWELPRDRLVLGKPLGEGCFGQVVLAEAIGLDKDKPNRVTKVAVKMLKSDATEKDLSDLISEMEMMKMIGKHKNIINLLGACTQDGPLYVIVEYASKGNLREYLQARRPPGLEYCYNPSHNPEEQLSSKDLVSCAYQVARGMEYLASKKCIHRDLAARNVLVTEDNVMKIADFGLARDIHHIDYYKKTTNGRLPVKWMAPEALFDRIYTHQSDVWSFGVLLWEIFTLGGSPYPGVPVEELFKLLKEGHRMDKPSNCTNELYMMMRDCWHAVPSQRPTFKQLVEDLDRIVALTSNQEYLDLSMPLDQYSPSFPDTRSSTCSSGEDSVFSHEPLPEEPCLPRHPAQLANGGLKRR

Row | SMILES | Kd (FGFR3 (V555M)) | Kd (FGFR4) | Kd (FGFR1) | Kd (FGFR3) | Kd (FGFR2) | Kd (FGFR3 (V555M); given as a number)
1 | C[C@@H]1CCN1c1ncc(-c2n[nH]c3cc(Cl)c(O[C@H](C)c4c(Cl)cncc4Cl)cc23)cc1F [Example 272, 6-chloro-5-((R)-1-(3,5-dichloropyridin-4-yl)ethoxy)-3-(5-fluoro-6-((R)-2-methylazetidin-1-yl)pyridin-3-yl)-1H-indazole] | 20 to 100 nM | 20 to 100 nM | > 300 nM | 20 to 100 nM | > 300 nM | 
2 | Cc1cc2[nH]nc(-c3cnc(N4CC5(C4)CN(S(C)(=O)=O)C5)c(F)c3)c2cc1O[C@H](C)c1c(Cl)cnc(C)c1Cl [Example 273, 5-[(1R)-1-(3,5-dichloro-2-methyl-4-pyridyl)ethoxy]-3-[5-fluoro-6-(2-methylsulfonyl-2,6-diazaspiro[3.3]heptan-6-yl)-3-pyridyl]-6-methyl-1H-indazole] |  | 1 to 20 nM | 20 to 100 nM | 1 to 20 nM | 20 to 100 nM | 1.8 nM
3 | Cc1ncc(Cl)c([C@@H](C)Oc2cc3c(-c4cnc(N5CCC5)c(F)c4)n[nH]c3cc2Cl)c1Cl [Example 274, 3-[6-(azetidin-1-yl)-5-fluoro-3-pyridyl]-6-chloro-5-[(1R)-1-(3,5-dichloro-2-methyl-4-pyridyl)ethoxy]-1H-indazole] | 1 to 20 nM | 20 to 100 nM | 100 to 300 nM | 20 to 100 nM | 100 to 300 nM | 
4 | CNC1(C)CN(c2ncc(-c3n[nH]c4cc(Cl)c(O[C@H](C)c5c(Cl)cnc(C)c5Cl)cc34)cc2F)C1 [Example 275, 1-[5-[6-chloro-5-[(1R)-1-(3,5-dichloro-2-methyl-4-pyridyl)ethoxy]-1H-indazol-3-yl]-3-fluoro-2-pyridyl]-N,3-dimethyl-azetidin-3-amine] | 1 to 20 nM | 1 to 20 nM | 1 to 20 nM | 1 to 20 nM | 20 to 100 nM | 
5 | C[C@H](Oc1ccc2[nH]nc(-c3cnc(N4CCC4)c(C#N)c3)c2c1)c1c(Cl)cnc(F)c1Cl [Example 283, (S)-2-(azetidin-1-yl)-5-(5-(1-(3,5-dichloro-2-fluoropyridin-4-yl)ethoxy)-1H-indazol-3-yl)nicotinonitrile] | > 300 nM | > 300 nM | > 300 nM | > 300 nM | > 300 nM | 
6 | C[C@@H](Oc1ccc2[nH]nc(-c3cnc(N4CC[C@@H](O)C4)c(C#N)c3)c2c1)c1c(Cl)cnc(F)c1Cl [Example 284, 5-(5-((R)-1-(3,5-dichloro-2-fluoropyridin-4-yl)ethoxy)-1H-indazol-3-yl)-2-((R)-3-hydroxypyrrolidin-1-yl)nicotinonitrile] | 20 to 100 nM | 20 to 100 nM | > 300 nM | 100 to 300 nM | > 300 nM | 
7 | C[C@@H](Oc1ccc2[nH]nc(-c3cnc(N4CCCC4)c(C#N)c3)c2c1)c1c(Cl)cncc1Cl [Example 285, 5-[5-[(1R)-1-(3,5-dichloro-4-pyridyl)ethoxy]-1H-indazol-3-yl]-2-pyrrolidin-1-yl-pyridine-3-carbonitrile] | 20 to 100 nM | 1 to 20 nM | > 300 nM | 100 to 300 nM | > 300 nM | 
8 | C[C@@H](Oc1ccc2[nH]nc(-c3cnc(N4CCC4)c(C#N)c3)c2c1)c1c(Cl)cnc(F)c1Cl [Example 286, (R)-2-(azetidin-1-yl)-5-(5-(1-(3,5-dichloro-2-fluoropyridin-4-yl)ethoxy)-1H-indazol-3-yl)nicotinonitrile] | > 300 nM | 100 to 300 nM | > 300 nM | > 300 nM | > 300 nM | 
9 | C[C@@H](Oc1ccc2[nH]nc(-c3cnc(N4CC(O)C4)c(C#N)c3)c2c1)c1c(Cl)cnc(F)c1Cl [Example 287, (R)-5-(5-(1-(3,5-dichloro-2-fluoropyridin-4-yl)ethoxy)-1H-indazol-3-yl)-2-(3-hydroxyazetidin-1-yl)nicotinonitrile] | 100 to 300 nM | 20 to 100 nM | > 300 nM | 100 to 300 nM | > 300 nM | 
